This is an account of results in paper PMC3409115, “Diverse Inhibitor Chemotypes Targeting Trypanosoma cruzi CYP51” (PLoS Neglected Tropical Diseases, 2012).

In series [1] the target is T1, T. cruzi CYP51 (Trypanosoma cruzi, UniProt Q7Z1V1).
T1 construct: had the first 21 residues upstream of K22 replaced with the fragment MAKKKKK; His6 (C); made in house
In words: Low throughput UV-vis binding assay. The settings on record: read-out: KD. The procedure:
Hit validation in the low throughput UV-vis binding assay was performed according to a previously published but somewhat modified protocol. UV-vis absorption spectra were recorded on a Cary scanning spectrophotometer (Varian) in the 1-cm path length quartz cuvette at 23°C in 100 mM potassium phosphate buffer, pH 7.5, containing 10% glycerol, with CYP51 concentration of 0.5 µM. Compound solutions used for titration were prepared in DMSO at 100 µM and added in 2-µl aliquots to each 3 ml sample using a P2 pipetman (Gilson). Binding affinity of hits was estimated using the quadratic tight-binding equation [27]: […]
where Aobs is the absorption shift determined at any ligand concentration; Amax is the maximal absorption shift obtained at saturation; KD is dissociation constant for the inhibitor-enzyme complex; S is the ligand concentration; Et is the total enzyme concentration.

In series [2] the test system is T. cruzi-infected skeletal myoblasts (intracellular amastigotes). In words: Hit cross-validation in T. cruzi-infected mammalian cells (image-based assay). It is filed as cell-based, Trypanosoma cruzi. The procedure: Bovine embryo skeletal muscle cells or mouse C2C12 myoblasts (ATCC#CRL-1772) used in the cross-validation assay, were cultivated respectively in RPMI 1640 medium supplemented with 5% horse serum and Dulbecco's Modified Eagle's Medium H-21 containing 4.5 g/l glucose (DMEM H-21) (Cell Culture Facility, UCSF), supplemented with 5% fetal bovine serum (FBS) (Sigma Chemical Co., St. Louis, MO, USA), 25 mM HEPES, 2 mM L-glutamine, 100 U/ml penicillin, 100 µg/ml streptomycin. T. cruzi CAI-72 trypomastigotes were obtained from supernatant of infected cultures 4 to 7 days post-infection. Cultures were maintained at 37°C in an atmosphere of 5% CO2. To harvest parasites, the supernatant of infected cultures containing released trypomastigotes was collected and centrifuged at 600 rpm for 5 min to remove cell debris; the pellet was then discarded and the trypomastigotes remaining in the media were concentrated by spinning the culture tubes at 3300 rpm for 15 minutes. The parasite pellet was re-suspended in 2–5 ml of fresh media. Trypomastigote concentration was determined using a Neubauer hemocytometer.
(§1) Compound cross-validation in T. cruzi infected skeletal myoblasts (bovine embryo skeletal muscle or C2C12 lineage) was performed according to the protocol adapted from Engel and co-authors. Compounds stored as 10 mM stocks in DMSO were freshly diluted immediately prior to use. […] To prepare plates for the assay, skeletal myoblasts cultured in […] flasks were washed once with phosphate buffered saline (PBS) and then incubated with 0.25% trypsin in PBS for 1–3 minutes for detachment. The trypsin solution was removed and myoblasts were released from the flask bottom. Fresh medium was added and cell concentration was determined using a Neubauer hemocytometer. Myoblasts in 50 µl of culture medium were transferred to the clear-bottom wells of black 96-well plates (Greiner Bio-One, #655090) at a density of 1500 cells/well and infected with 50 µl trypomastigote culture at 7500 parasites/well (1∶5 ratio). The cells were allowed to adhere and spread for 24 h in the incubator before the media was removed and 100 µl of fresh medium containing 0, 0.04, 0.12, 0.37, 1.10, 3.30 or 10 µM of test compound was added to each well, followed by 72 h incubation at 37°C in an atmosphere of 5% CO2. Posaconazole was used as a positive control at the same concentrations as the test compounds. The cells were then fixed by adding 100 µl/well of 8% formaldehyde in PBS, resulting in a 4% working concentration of formaldehyde. To stain the nucleus of the host cell and the nucleus and kinetoplast of parasites, cell membranes were first permeabilized by washing once with 100 µl of 0.1% Triton X-100 in PBS, then treated for 1 h with 0.2 µg/ml of the fluorescent DNA dye, 4,6-diamidino-2-phenylindole (DAPI), followed by one wash with PBS. The fixed plates were kept at 4°C and protected from light until images were acquired.
(§2) Plates were allowed to equilibrate to room temperature and images were acquired by the IN Cell Analyzer 2000 (GE Healthcare) with a 20× objective, 5 fields per well, with 350/50 nm and 460/40 nm fluorescent excitation and emission filters. In the absence of drug cytotoxicity, at least 800 cells were imaged and counted per well. The images were processed and analyzed by IN Cell Analyzer Developer 1.6 software. The size parameters used to segment host and parasite organelles were 125 µm^2 for host nucleus, and 1–2 µm^2 for parasite nucleus/kinetoplast. Since DAPI also strongly stains host heterochromatin regions that display as shapes resembling parasites ( Figure 3 ), particles co-localized to host nuclei were excluded from quantification, while parasite aggregates near the host nucleus were counted as infected cells.

For series [3], the system named is host cell (skeletal myoblasts, bovine embryo skeletal muscle or C2C12). In words: Host cell toxicity in the cross-validation assay. It is filed as cell-based. Particulars: host cells in cross-validation assay, up to 10 µM. On the procedure: as §1
as §2, with “cells. Numbers of host cells and intracellular amastigotes were determined based on host cell and parasite nucleus and parasite kinetoplast quantification, providing a measure of growth inhibition during the first 72 h of post-infection treatment compared to untreated controls.” for “cells.”
^aToxicity was assessed as the highest percentage of host cell growth inhibition caused by compound treatment. Scores are assigned as 1-<20%; 2-21-30%; 3- 31-40%; 4-41-50% and 5->50% growth inhibition.

Series [4] concerns the target T1, T. cruzi CYP51. In words: HTS spectral-mode binding screen, type II difference spectra scored 0-5.
The mark [5] stands for this setting: UV-vis titration, 0.5 µM CYP51, quadratic tight-binding equation, lower limit of method ~5 nM.
[6] abbreviates: T. cruzi-infected myoblasts, 72 h treatment, read-out: EC50 against T. cruzi parasites in HTS assay used to rank order the hits.
Setting [7] is: Trypanosoma cruzi, Myoblast, 72 h, T. cruzi-infected myoblasts, 72 h treatment, read-out: EC50 against T. cruzi parasites in HTS assay used to rank order the hits.
The mark [8] stands for this setting: spectral mode, four serial dilutions 2 µM to 12.5 µM, 2 µM CYP51.
Setting [9] is: type II difference spectra scored 0-5, second highest rated hit compound cluster.
[10] abbreviates: Trypanosoma cruzi, Myoblast, 72 h, T. cruzi-infected myoblasts, 72 h treatment, repurchased compound, read-out: EC50 averaged from two independent cross-validation assays for individually repurchased hits.
Where [11] appears, read: Trypanosoma cruzi, Myoblast, 72 h, read-out: EC50 against T. cruzi parasites in HTS assay used to rank order the hits.

Like-named read-outs stand apart in the source and are kept apart here.

T1 sequence (Q7Z1V1 15-481, looked up, natural form): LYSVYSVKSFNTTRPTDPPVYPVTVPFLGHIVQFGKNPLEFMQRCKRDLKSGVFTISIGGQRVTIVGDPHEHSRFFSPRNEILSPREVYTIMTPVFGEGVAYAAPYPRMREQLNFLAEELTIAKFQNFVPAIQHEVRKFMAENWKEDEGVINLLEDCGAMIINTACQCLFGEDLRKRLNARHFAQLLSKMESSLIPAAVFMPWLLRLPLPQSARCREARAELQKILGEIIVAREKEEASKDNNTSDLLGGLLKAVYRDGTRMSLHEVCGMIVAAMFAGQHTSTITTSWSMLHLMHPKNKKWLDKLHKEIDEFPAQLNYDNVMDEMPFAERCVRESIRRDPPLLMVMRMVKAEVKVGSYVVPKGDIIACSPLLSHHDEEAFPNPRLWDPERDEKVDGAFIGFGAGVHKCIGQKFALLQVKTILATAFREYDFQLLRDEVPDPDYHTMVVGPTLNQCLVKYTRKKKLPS

As for `COC(=O)C1=C(N)Oc2cc(C)n(CCc3ccc(OC)c(OC)c3)c(=O)c2C1c1cccnc1` (stereo not shown) [Compound 6, methyl 2-amino-6-[2-(3,4-dimethoxyphenyl)ethyl]-7-methyl-5-oxo-4-pyridin-3-yl-5,6-dihydro-4H-pyrano[3,2-c]pyridine-3-carboxylate], the Kd (as a rule, the constant that tells how readily two partners part at equilibrium) on T. cruzi CYP51 [1] (setting [5]) was 76 nM. The EC50 (in general, the concentration needed to bring the measured effect to its halfway point) in series [2] (setting [6]) was 614 nM; in series [2] (setting [7]), 610 nM; in series [2] (Trypanosoma cruzi, Myoblast, in Mus musculus, T. cruzi amastigotes cultured in mouse myoblasts, averaged from two independent assays, read-out: EC50 in low throughput validation (repurchased hit)), 80 nM. For the same compound, the “Toxicity score (highest percentage of host cell growth inhibition)” value in series [3] is on record as 1 (1-<20%). In addition, the HTS binding score on T. cruzi CYP51 [4] (setting [8]) and at T. cruzi CYP51 [4] (setting [9]) was 3 throughout.
Regarding `COc1ccc(S(=O)(=O)NC(C)c2ccc(-n3ccnc3)cc2)c2ccccc12` (stereo not shown) [Compound 3], at T. cruzi CYP51 [1] (setting [5]), the Kd was no more than 5 nM. Moreover, the EC50 in series [2] (setting [6]) is 484 nM; in series [2] (setting [10]), 200 nM; in series [2] (setting [7]), 480 nM. Further, the “Toxicity score (highest percentage of host cell growth inhibition)” value in series [3] is 2 (2-21-30%).
On to `Brc1ccccc1OCCCCn1ccnc1` [Compound 1b], for which, at T. cruzi CYP51 [1] (setting [5]), the Kd came out at 66 ± 29 nM. In addition, in series [2] (setting [10]), the EC50 is 4580 ± 2000 nM.
Consider `Brc1ccc(OCCCCCCn2ccnc2)cc1` [Compound 1a], for which the Kd at T. cruzi CYP51 [1] (setting [5]) is no more than 5 nM. Besides, the EC50 in series [2] (setting [10]) came to 930 ± 100 nM.
Consider `COC(=O)C1=C(C)N(Cc2cccnc2)C(=O)/C1=C\c1ccccc1OCc1ccccc1` [Compound 53], for which the EC50 in series [2] (setting [11]) stood at 9060 nM. In addition, in series [3], the “Toxicity score (highest percentage of host cell growth inhibition)” value is 1 (1-<20%). The same compound returned an HTS binding score on T. cruzi CYP51 [4] (setting [8]) of 3.
The matching figures for `CCOC(=O)C1=C(C)N(C)C(C)=C(C(=O)OCC)C1c1ccncc1` [Compound 29]: 5180 nM, 1 (1-<20%) and 5.
`N#CC1=C(N)OC2=C(C(=O)CC(c3ccccc3)C2)C1c1cccnc1` (stereo not shown) [Compound 7]: the EC50 was found to be 667 nM in series [2] (setting [6]) and 670 nM in series [2] (setting [7]). Besides, in series [3], the “Toxicity score (highest percentage of host cell growth inhibition)” value is reported as 4 (4-41-50%). In addition, the HTS binding score at T. cruzi CYP51 [4] (setting [8]) and at T. cruzi CYP51 [4] (setting [9]) was 3 each time.
As for `Cn1c(SCc2nc(-c3ccc(Cl)cc3)no2)nnc1-c1ccncc1` [Compound 40], the EC50 in series [2] (setting [11]) turned out to be 7670 nM. For the same compound, the “Toxicity score (highest percentage of host cell growth inhibition)” value in series [3] was 1 (1-<20%). The same compound had an HTS binding score on T. cruzi CYP51 [4] (setting [8]) of 5.
In the case of `CN(C)C(C/N=C(\S)NCCc1ccccc1)c1cccnc1` (stereo not shown) [Compound 46], the EC50 in series [2] (setting [11]) was 8180 nM. The “Toxicity score (highest percentage of host cell growth inhibition)” value in series [3] was 1 (1-<20%). In addition, the HTS binding score at T. cruzi CYP51 [4] (setting [8]) came to 1.
Regarding `c1ccc(CC(NCc2ccncc2)c2ccccc2)cc1` (stereo not shown) [Compound 27], the EC50 in series [2] (setting [11]) was 4820 nM. For the same compound, the “Toxicity score (highest percentage of host cell growth inhibition)” value in series [3] was 1 (1-<20%). The compound also gave an HTS binding score on T. cruzi CYP51 [4] (setting [8]) of 5.
The matching figures for `Nc1c(C(=O)NCCc2c[nH]c3ccccc23)sc2nc(-c3cccnc3)ccc12` [Compound 57]: 9740 nM, 1 (1-<20%) and 2.
The corresponding values for `O=C(/C=C/c1cccs1)c1ccncc1` [Compound 56] are 9620 nM, 3 (3- 31-40%) and 3.
For `Cc1cccc(Nc2nc(-c3ccncc3)cs2)n1` [Compound 9], the Kd at T. cruzi CYP51 [1] (setting [5]) was no more than 5 nM. The EC50 is 914 nM in series [2] (setting [6]), 580 nM in series [2] (setting [10]) and 910 nM in series [2] (setting [7]). Also, in series [3], the “Toxicity score (highest percentage of host cell growth inhibition)” value was 1 (1-<20%). On T. cruzi CYP51 [4] (setting [8]), this compound had an HTS binding score of 4.
As for `CC1(C)CC(=O)C2=C(C1)c1c(ccc3ccccc13)NC2c1cccnc1` (stereo not shown) [Compound 19], the Kd on T. cruzi CYP51 [1] (T. cruzi CYP51) is no more than 5 nM. Also, the EC50 in series [2] (setting [7]) stood at 2500 nM. In addition, the “Toxicity score (highest percentage of host cell growth inhibition)” value in series [3] is recorded as 3 (3- 31-40%). For the same compound, the HTS binding score on T. cruzi CYP51 [4] (setting [8]) and on T. cruzi CYP51 [4] (setting [9]) was 5 throughout.
As for `OC(c1ccccc1)(c1ccccc1)c1c[nH]cn1` [Compound 47], the EC50 in series [2] (setting [11]) is 8220 nM. Further, the “Toxicity score (highest percentage of host cell growth inhibition)” value in series [3] was 2 (2-21-30%). The HTS binding score at T. cruzi CYP51 [4] (setting [8]) is reported as 3.
The corresponding values for `Cc1ccc(NC(=O)c2sc3nc(-c4ccncc4)ccc3c2N)cc1Cl` [Compound 22] are 2860 nM, 2 (2-21-30%) and 2.
For the compound `CCCCNC(=O)c1cc(-c2ccncc2)nc2ccccc12` [Compound 50], in series [2] (setting [11]), the EC50 worked out at 8400 nM. Besides, in series [3], the “Toxicity score (highest percentage of host cell growth inhibition)” value is reported as 4 (4-41-50%). The same compound showed an HTS binding score at T. cruzi CYP51 [4] (setting [8]) of 5.
For the compound `Clc1ccc(OCCCCCCn2ccnc2)cc1` [Compound 11], the Kd at T. cruzi CYP51 [1] (setting [5]) was determined as 65 ± 15 nM. Further, the EC50 stood at 948 nM in series [2] (setting [6]), 760 nM in series [2] (setting [10]) and 950 nM in series [2] (setting [7]). For the same compound, in series [3], the “Toxicity score (highest percentage of host cell growth inhibition)” value is reported as 2 (2-21-30%).
As for `c1ccc2c(c1)-c1ccccc1C2n1ccnc1` [Compound 36], in series [2] (setting [11]), the EC50 turned out to be 7240 nM. Further, the “Toxicity score (highest percentage of host cell growth inhibition)” value in series [3] is listed as 3 (3- 31-40%). On T. cruzi CYP51 [4] (setting [8]), this compound showed an HTS binding score of 1.
The corresponding values for `O=P(Nc1cccnc1)(Oc1ccccc1Cl)Oc1ccccc1Cl` [Compound 41] are 7730 nM, 1 (1-<20%) and 5.
For `Cc1ccc(CNC(=O)C(=O)NCC(c2cccnc2)N2CCN(Cc3ccccc3)CC2)cc1` (stereo not shown) [Compound 14], the EC50 in series [2] (setting [11]) is 1670 nM. Also, in series [3], the “Toxicity score (highest percentage of host cell growth inhibition)” value is listed as 4 (4-41-50%). The HTS binding score on T. cruzi CYP51 [4] (setting [8]) turned out to be 2.
